The text below walks through data of article PMC8126183, “Three LysM effectors of Zymoseptoria tritici collectively disarm chitin‐triggered plant immunity” (Molecular Plant Pathology, 2021).

One assay has as its target T1, Mg1LysM (Zymoseptoria tritici, UniProt F9XHX3).
T1 construct: E. coli-produced; single LysM; borders and tag not described; ligand-independent homodimer
Briefly: ligand-induced polymerization, centrifugation pellet with methylene blue. The conditions noted are these: 200 µM protein stock mixed 1:1 with 2 mM chitohexaose; room temperature overnight; positive control. In kind it is binding.

The next assay has as its target T2, Mgx1LysM (Zymoseptoria tritici, UniProt P9WEM2).
T2 construct: mature protein, signal peptide removed; E. coli Origami, pETSUMO; 6xHis-SUMO tag cleaved with ULP1; single LysM
Described as above. The format is binding. The conditions noted are these: 200 µM protein stock mixed 1:1 with 2 mM chitohexaose; room temperature overnight.

T1 sequence (F9XHX3 19-97): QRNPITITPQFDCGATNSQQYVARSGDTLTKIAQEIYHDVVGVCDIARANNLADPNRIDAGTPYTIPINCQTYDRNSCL
T2 sequence (P9WEM2 19-103): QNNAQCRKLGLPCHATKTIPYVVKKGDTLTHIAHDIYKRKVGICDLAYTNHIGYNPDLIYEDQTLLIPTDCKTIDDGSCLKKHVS

For `CC(=O)N[C@H]1[C@H](O[C@H]2[C@H](O)[C@@H](NC(C)=O)[C@H](O[C@H]3[C@H](O)[C@@H](NC(C)=O)C(O)O[C@@H]3CO)O[C@@H]2CO)O[C@H](CO)[C@@H](O[C@@H]2O[C@H](CO)[C@@H](O[C@@H]3O[C@H](CO)[C@@H](O[C@@H]4O[C@H](CO)[C@@H](O)[C@H](O)[C@H]4NC(C)=O)[C@H](O)[C@H]3NC(C)=O)[C@H](O)[C@H]2NC(C)=O)[C@@H]1O` (some centres unmarked) [chitohexaose], the “ligand-induced polymerization, centrifugation pellet with methylene blue” value is “protein pellets (red arrowheads) as a consequence of polymerization for Mgx1LysM, Mg1LysM, and RiSLM” on Mg1LysM; “a clear Mgx1LysM pellet emerged upon incubation with chitin, and not in the absence” on Mgx1LysM.
